Results taken from patent US20250195523A1, “ORGANIC MOLECULES FOR TREATING MYELIN PATHOLOGIES” (ICM (INSTITUT DU CERVEAU ET DE LA MOELLE ÉPINIÈRE), priority 2022, published 2025).

How the values were obtained:
[1] = tested on: focal demyelination in the corpus callosum of adult mice; test: Lysolecithin (LPC) induced focal de/remyelination model in adult mice, oral administration in drinking water; assay type: in vivo; settings: 7 dpl, oral daily
Protocol: We weighted and anesthetized 4 months old RjOrl: SWISS mice (Janvier) with isoflurane (induced at 3%, and maintained at 1.2-1.6%). We induced focal demyelinating lesions by injecting 0.5 μl of a solution of 1% lysolecithin (LPC, Sigma in 0.9% NaCl solution) into the corpus callosum. To do so, a glass-capillary connected to a 10 μl Hamilton syringe was fixed and oriented through stereotaxic apparatus (coordinates: 1 mm lateral, 1.3 mm rostral to Bregma, 1.7 mm deep to brain surface). Animals were left to recover for a few hours in a warm chamber. […] Mice was perfused at 2% cold paraformaldehyde (thermos fisher) at 7 DPI.
For in-vivo cryosections (14-μm thick) of lesions, immunohistochemistry was performed after 30 mn drying at RT in a moist chamber. For myelin staining, ethanol treatment (100%) was performed for 10 mn at RT. Briefly, sections were permeabilized and blocked in a blocking buffer for 1 h (0.05% Triton X-100/10% normal goat serum/PBS). Then, cryosections were incubated overnight with the following primary antibodies at 4° C.: Mouse anti-APC (CC1 IgG2B; 1:100, calbiochem); Rabbit anti-Olig2 (1:500; Millipore); Mouse anti-Olig1 (IgG1; 1:500; NeuroMab); Rat anti-CD68 (1:500, AbD SEROTEC/BioRad); Rabbit anti-IBA1 (1:500, Wako Fujifilm); Mouse anti-MOOG (mlgG1, 1:20; Hybridoma). Then sections were washed 3 times in 0.05% Triton X-100/PBS and incubated 1 hour at RT with appropriate secondary antibodies conjugated with Alexa Fluor 488, 594 and 647 (1:1000; Molecular Probes or Thermo Fisher) and Dapi (1:5000 from working solution at 5 mg/ml; Life Technologies; D1306). Sections were washed 3 times in 0.05% Triton X-100/PBS and mounted with Fluoromount-G (SouthernBiotech).
We analyzed the lesions at 7 days post-lesion (7 dpl), when newly formed OLs have started to remyelinate the lesion in this model. The lesion area was identified by immunodetection of the high cellular density with DAPI staining, reduction of myelin with myelin oligodendrocyte glycoprotein (MOG), and abundance of microglia/macrophages with Iba1 and Cd68. We determined the effect of the drugs to promote oligodendrogenesis at the lesion site by combinatory immunodetection of Olig2, CC1 and Olig1, allowing to distinguish OPCs (Olig2^high/CC1^−/Olig1^nuclear-cyto cells) and three stages in OL differentiation: iOL1 (Olig2^high/CC1^high/Olig1^− cells), iOL2 (Olig2^high/CC1^high/Olig1^high-cyto cells), and mOL (Olig2^low/CC1^low/Olig1^low cells). […] Given the increase in OL differentiation by the drugs administration, without diminishing the pool of OPCs in the lesion area, we assessed for the proliferative status of OPCs, using Mcm2 and Ki67 proliferative markers, finding that both drugs promote a ˜2-fold increase in the density of proliferative OPCs (FIG. 4D) and in the proportion of proliferative OPCs (FIG. 4E).
To investigate the possible anti-inflammatory and pro-regenerative activity of these drugs, we performed staining for microglia/macrophages (Iba1+ cells), their active phagocytic status (Cd68+ cells), together with myelin (MOG) and cell density (DAPI) to identify the lesion area.

[2] = tested on: neonatal chronic hypoxia model (dorsal SVZ and cortex); test: Neonatal chronic hypoxia model of preterm birth brain injury, intranasal administration; assay type: in vivo, mice
Protocol: Mice aged P1 were placed in a hypoxic rearing chamber maintaining at 9.5-10.5% O2 concentration by displacement with N2. Hypoxia began at the postnatal day 3 (P3) for 8 days until P11. A separate group was maintained in a normal atmosphere (normoxic group). […] Mucus was first permeabilized by the use of type IV hyaluronidase, then 10 μl of drugs (Sigma) was administered 3 times, 1 time a day from P11 to P13 (starting at the end of the hypoxic period, then every 24 hours) in sterile PBS (control). For analysis of proliferation, mice were injected with EdU (Sigma) in order to label cells in an actively cycling state in S-phase, then perfused 1 h later at P13. For analysis of OL maturation, mice were perfused at P19. All perfusions were performed with Ringer, followed by ice cold solution of 4% paraformaldehyde (Thermo Fisher). Mice were sacrificed at P13 or P19 by an intraperitoneal overdose of pentobarbital followed by perfusion with Ringer's lactate solution and 4% paraformaldehyde (PFA; Sigma) dissolved in 0.1M phosphate buffer (PB; pH 7.4). Brains were removed and post-fixed for 24 hours at 4° C. in 4% PFA and sectioned in 50 μm thick coronal serial sections, free floating sections.
For in vivo-cryosections (50 μm) of chronic hypoxia, antigen retrieval was performed for 20 min in a citrate buffer (ph 6.0) at 80° C., then cooled for 20 min at room temperature and washed in 0.1M PB. The following antibody were used for immunohistochemical procedures: Mouse anti-APC (CC1 IgG2B; 1:100, calbiochem); Mouse anti-Olig2 (1:1500; Millipore); Rabbit anti-Olig2 (1:400; Millipore); Rabbit anti-GSTpi (1:1000, Enzo). Blocking was performed in a TNB buffer (0.1 M PB; 0.05% Casein; 0.25% Bovine Serum Albumin; 0.25% TopBlock) with 0.4% triton-X (TNB-Tx). Sections were incubated overnight at 4° C. with gentle shaking. Following extensive washing in 0.1 M PB with 0.4% triton-X (PB-Tx), sections were incubated with appropriate secondary antibodies conjugated with Alexa Fluor 488 or 555 (1:500; Jackson or Invitrogen) for 2 hrs at room temperature. Sections were washed and counterstained with Dapi (1:5000 from a working solution at 5 mg/ml; Life Technologies; D1306). Revelation of EdU was done using Click-it™, EdU cell proliferation Kit for imaging, Alexa fluor™ 647 dye (Thermo Fisher scientific).
Chronic hypoxia is a well-established model of very preterm birth, that induces a diffuse perinatal brain lesion by housing the pups at 10% oxygen from P3 to P11 (FIG. 5A). This neonatal hypoxia induces a marginal cell death including neuronal and glial cells along with delay into forebrain development including OL maturation that appear to persist in adulthood. […] We next assessed the impact on OL differentiation by immunodetection of OLs with CC1 antibody and oligodendroglial cells by Olig2.

With `CCCCOc1ccc(C(=O)CCN2CCCCC2)cc1.Cl` [Sm5, Dyclonine hydrochloride] the “number of oligodendroglial cells in the remyelinating area (Olig2+ cells)” value ([1]; sm5 at 5 μg per g, control 942.5±265.7, FIG. 4B) was 1208±281.1 Olig2+ cells per mm^2, the “density of OPCs (Olig2high/CC1−/Olig1nuclear-cyto cells) in the lesion area” value ([1]; FIG. 4C) was “did not change” and the “increase of the differentiation ratio (number of OLs per OPC) versus control” value ([1]; FIG. 4F) was 2 fold. For the same compound, the “pro-regenerative microglia (Arg1+ cells)” value ([1]; FIG. 4I) was “corresponding increase”, the “actively phagocytic microglia/macrophages (Cd68+ cells)” value ([1]; control 22.45%, FIG. 4H) was “reduction of their phagocytic population” and the “differentiation ratio (number of OLs per OPC)” value ([1]; control 25% (1 OLs for 4 OPCs), FIG. 4F) was 50%. The “surface occupied by Iba1+ microglia/macrophages in the lesion area” value ([1]; control 33.64%, FIG. 4G) was “trend to reduce”, the “increase of each stage of OL differentiation (iOL1, iOL2 & mOL)” value ([1]; versus control) was “more moderate effect only significant at the iOL2 stage” and the “increase in the density of proliferative OPCs (Mcm2, Ki67 markers)” value ([1]; versus control, FIG. 4D) was roughly 2 fold. For the same compound, the “increase in the proportion of proliferative OPCs” value ([1]; versus control, FIG. 4E) was roughly 2 fold, the “EdU+ cell density within the subventricular zone (proliferation)” value ([2]; P13, intranasal P11 to P13, sm5 at 5 μg per g, sm11 at 0.5 μg per g, versus hypoxia, FIG. 6A) was “no marked additive effects” and the “proportion of Olig2+ cells labeled with EdU (proliferative OPCs, dorsal SVZ)” value ([2]; P13, intranasal P11 to P13, versus hypoxia, FIG. 6B) was “significant increase”. The “myelinating OLs (GSTπ+ cells), GSTπ expression” value ([2]; P19, cortex, intranasal P11 to P13, after hypoxia, FIG. 5D) was “complete recovery”, the “OL differentiation, ratio of Olig2+ cells expressing CC1” value ([2]; P19, cortex, intranasal P11 to P13, compared to hypoxic and normoxic groups, FIG. 5C) was “increased OL differentiation beyond the normoxic and sm11 groups” and the “density of oligodendroglial cells (Olig2+ cells) in the cortex” value ([2]; P19, intranasal P11 to P13, FIG. 5B) was “no major effect”.
